This note sets out measurements from ChEMBL document CHEMBL1143604, “Structure-activity relationship studies optimizing the antiproliferative activity of novel cyclic somatostatin analogues containing a restrained cyclic beta-amino acid” (J Med Chem, 2005).

Usually IC50 stands for the concentration at which inhibition is half-maximal. Read a high IC50 as weaker potency in that assay.

The assay concerns A-431. Nature of the assay: Antiproliferative activity against human epidermiod carcinoma A431 cells. Format: functional, cell-based.

On to `C[C@@H](O)[C@@H]1NC(=O)C(CCCCN)NC(=O)[C@@H](Cc2c[nH]c3ccccc23)NC(=O)C(Cc2ccccc2)NC(=O)[C@@H]2CCCN2C(=O)C(Cc2ccccc2)NC1=O` (single isomer, unassigned), for which the IC50 was more than 50 µM.
The compound `CCCC[C@@H]1NC(=O)[C@@H](Cc2c[nH]c3ccccc23)NC(=O)[C@H](Cc2ccc(O)cc2)NC(=O)[C@H]2C[C@@H](C)C=C(C)[C@H]2NC(=O)[C@H]([C@@H](C)O)NC1=O` registered an IC50 of more than 100 µM.
In turn, `CCCC[C@@H]1NC(=O)[C@@H](Cc2c[nH]c3ccccc23)NC(=O)[C@@H](Cc2ccc(O)cc2)NC(=O)[C@H]2C[C@@H](C)C=C(C)[C@H]2NC(=O)[C@H]([C@@H](C)OC(c2ccccc2)(c2ccccc2)c2ccccc2)NC1=O` returned an IC50 of 6 µM.
The compound `CCCC[C@@H]1NC(=O)[C@@H](Cc2c[nH]c3ccccc23)NC(=O)[C@H](Cc2ccc(O)cc2)NC(=O)[C@@H]2CCCN2C(=O)[C@H](Cc2ccccc2)NC(=O)[C@H]([C@@H](C)O)NC1=O` displayed an IC50 of 32 µM.
With `CCCC[C@@H]1NC(=O)[C@@H](Cc2c[nH]c3ccccc23)NC(=O)[C@H](Cc2ccc(O)cc2)NC(=O)[C@H]2C[C@@H](C)C=C(C)[C@H]2NC(=O)[C@H]([C@@H](C)OC(c2ccccc2)(c2ccccc2)c2ccccc2)NC1=O`, 5 µM corresponded to half-maximal inhibition (IC50).
With `CCCC[C@@H]1NC(=O)[C@H](Cc2c[nH]c3ccccc23)NC(=O)[C@@H](Cc2ccc(O)cc2)NC(=O)[C@@H]2CCCN2C(=O)[C@H](Cc2ccccc2)NC(=O)[C@@H]([C@@H](C)OC(c2ccccc2)(c2ccccc2)c2ccccc2)NC1=O`, the IC50 was determined as 26 µM.
